Results taken from the supplement of paper PMC10307832.

How the values were obtained:
Assay in all cases: relative viability (nuclei count vs DMSO), 5 days (fraction); higher = more cells survive
AZD6482 + Navitoclax = compound: Cc1cc([C@@H](C)Nc2ccccc2C(=O)O)c2nc(N3CCOCC3)cc(=O)n2c1 [AZD6482] + CC1(C)CCC(c2ccc(Cl)cc2)=C(CN2CCN(c3ccc(C(=O)NS(=O)(=O)c4ccc(N[C@H](CCN5CCOCC5)CSc5ccccc5)c(S(=O)(=O)C(F)(F)F)c4)cc3)CC2)C1 [Navitoclax] (partner 0.5 µM)
Procedure, shortened: (§1)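 For relative viability, nuclei counts in treated wells were divided by those in vehicle wells. Lung cancer cell lines had been pin-tool dosed in 1536-well plates the day after seeding and cultured for 5 days, then fixed and stained in one step (final 0.05% Triton X-100, 1% formaldehyde, 1 ug/ml Hoechst) and imaged at 4×. Doses were one drug alone or a fixed anchor-drug dose plus five library-drug doses (not always all listed) in √10 steps, and values are duplicate-plate medians.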

AZD6482 + Luminespib = compound: Cc1cc([C@@H](C)Nc2ccccc2C(=O)O)c2nc(N3CCOCC3)cc(=O)n2c1 [AZD6482] + CCNC(=O)c1noc(-c2cc(C(C)C)c(O)cc2O)c1-c1ccc(CN2CCOCC2)cc1 [Luminespib] (partner 0.01 µM)
Procedure, shortened: as §1

AZD6482 + Dasatinib = compound: Cc1cc([C@@H](C)Nc2ccccc2C(=O)O)c2nc(N3CCOCC3)cc(=O)n2c1 [AZD6482] + Cc1nc(Nc2ncc(C(=O)Nc3c(C)cccc3Cl)s2)cc(N2CCN(CCO)CC2)n1 [Dasatinib] (partner 0.075 µM)
Procedure, shortened: as §1

AZD6482 + AZD7762 = compound: Cc1cc([C@@H](C)Nc2ccccc2C(=O)O)c2nc(N3CCOCC3)cc(=O)n2c1 [AZD6482] + NC(=O)Nc1cc(-c2cccc(F)c2)sc1C(=O)N[C@H]1CCCNC1 [AZD7762] (partner 0.2 µM)
Procedure, shortened: as §1

Cell Line	relative viability (AZD6482 + Navitoclax; first compound 0.08 µM)	relative viability (AZD6482 + Navitoclax; first compound 0.253 µM)	relative viability (AZD6482 + Navitoclax; first compound 0.8 µM)	relative viability (AZD6482 + Navitoclax; first compound 2.53 µM)	relative viability (AZD6482 + Navitoclax; first compound 8 µM)	relative viability (AZD6482 + Luminespib; first compound 0.08 µM)	relative viability (AZD6482 + Luminespib; first compound 0.253 µM)	relative viability (AZD6482 + Luminespib; first compound 0.8 µM)	relative viability (AZD6482 + Luminespib; first compound 2.53 µM)	relative viability (AZD6482 + Luminespib; first compound 8 µM)	relative viability (AZD6482 + Dasatinib; first compound 0.08 µM)	relative viability (AZD6482 + Dasatinib; first compound 0.253 µM)	relative viability (AZD6482 + Dasatinib; first compound 0.8 µM)	relative viability (AZD6482 + Dasatinib; first compound 2.53 µM)	relative viability (AZD6482 + Dasatinib; first compound 8 µM)	relative viability (AZD6482 + AZD7762; first compound 0.08 µM)	relative viability (AZD6482 + AZD7762; first compound 0.253 µM)	relative viability (AZD6482 + AZD7762; first compound 0.8 µM)	relative viability (AZD6482 + AZD7762; first compound 2.53 µM)	relative viability (AZD6482 + AZD7762; first compound 8 µM)
201T	1.22	1.17	1.19	1.12	1.17	0.995	0.982	1.01	0.847	1.02	0.645	0.542	0.627	0.416	0.395	0.739	0.669	0.615	0.611	0.565
A-427	0.861	0.903	0.916	0.757	0.947	0.974	0.79	0.986	–	0.677	0.717	0.615	0.715	–	0.754	0.645	0.804	0.684	0.451	0.627
BEN	0.058	0.0744	0.0638	0.0645	0.178	0.399	0.193	0.522	0.177	0.334	0.358	0.269	0.39	0.216	0.339	0.664	0.68	0.779	0.457	0.646
CAL-12T	1.13	1.29	1.29	0.648	1.23	0.476	0.204	0.338	0.171	0.325	0.403	0.393	0.332	0.21	0.171	0.686	0.647	0.677	0.468	0.665
ChaGo-K-1	1.09	–	1.18	0.986	1.1	0.486	0.526	0.574	0.593	0.501	0.647	0.501	0.79	0.589	0.532	0.897	0.775	0.946	0.823	0.915
EKVX	0.817	0.868	0.786	0.535	0.57	0.778	0.748	0.74	0.625	0.557	0.465	0.507	0.504	0.304	0.3	0.564	0.666	0.538	0.478	0.494
EMC-BAC-2	1.09	1.08	1.12	0.916	0.971	1.01	1.05	1.18	0.805	0.787	0.253	0.327	0.275	0.257	0.271	1.03	0.958	1.02	0.818	0.679
EPLC-272H	0.943	–	0.994	0.896	0.775	0.347	0.164	0.21	0.179	0.256	0.253	0.291	0.311	0.172	0.124	0.531	0.151	0.298	0.197	0.207
H3255	0.501	0.523	0.352	0.314	0.243	0.986	0.761	0.806	0.529	0.799	0.339	0.342	0.476	0.345	0.322	0.895	0.83	0.984	0.697	0.692
HARA	1.11	1.16	1.13	–	1.16	0.58	0.636	0.57	0.627	0.419	0.268	0.302	0.232	0.188	0.157	0.424	0.338	0.269	0.224	0.516
HCC-15	0.666	0.616	0.626	0.515	0.523	0.425	0.229	0.275	0.239	0.43	0.566	0.545	0.594	0.385	0.598	1.24	1.4	1.26	1.18	1.11
HCC-44	0.758	0.964	0.965	0.874	0.459	0.941	1.12	0.98	0.824	1.1	–	–	–	–	–	0.897	0.997	1.1	1.11	1.38
HCC-78	0.663	0.438	0.433	0.203	0.306	–	–	–	–	–	0.298	0.207	0.254	0.192	0.199	0.671	0.388	0.57	0.327	0.409
HCC-366	0.937	1.01	1.11	0.901	0.908	–	–	–	–	–	0.659	0.564	0.733	0.271	0.482	0.23	0.243	0.253	0.179	0.25
HCC-827	0.938	1.01	1.07	0.899	0.898	0.601	0.478	0.293	0.27	0.196	0.255	0.2	0.197	0.161	0.214	0.351	0.184	0.162	0.131	0.137
HOP-62	1.19	1.17	1.28	0.791	1.12	0.889	1.01	1.11	0.793	1.04	0.428	0.528	0.572	0.299	0.349	0.577	0.626	0.706	0.526	0.761
LC-2-ad	0.407	0.312	0.394	0.234	0.259	0.976	0.954	1.28	0.914	1.12	0.431	0.357	0.537	0.306	0.282	0.842	0.774	0.821	0.662	0.593
